The results in this text go back to patent US20180008688A1, “METHOD AND COMPOSITIONS FOR ENHANCING IMMUNOTHERAPEUTIC TREATMENT OF A CANCER” (Augusta University Research Institute, Inc., priority 2016, published 2018).

Like-named read-outs stand apart in the source and are kept apart here.

The assay deals with B16F10 tumors. Type of assay: in vivo. To be noted: for anti-tumor effect: nutlin-3a added to CTX/VO-OHpic, FIG. 8B. On the procedure: In vivo tumor studies: The B16F10 and E.G7 (EL4-OVA) cell lines were obtained from ATCC. B16-OVA (B16F10 transfected with full-length chicken ovalbumin) clone MO4 was according to Falo et al. ((1995) Nat. Med. 1: 649-653). B16F10 cells expressing EGFP protein (B16-GFP cells) were derived using lentiviral transfection. Tumor implantation was performed as described (Sharma et al., (2007) J. Clin. Invest. 117: 2570-2582), using 1×10^5 cells for B16F10 and 1×10^6 cells for other cell lines (large inocula were used to ensure rapid tumor engraftment and immune suppression). […] Tumor volume was calculated from orthogonal diameters using the formula V=L×W^2×π/6. Mice received approved euthanasia when tumors reached a size of 300 mm^2 (product of orthogonal diameters); death was never used a planned endpoint in any study.
Tumor implantation was performed as described (Sharma et al., (2007) J. Clin. Invest. 117: 2570-2582). VO-OHpic was given at 10 mg/kg/day i.p., in 10% DMSO/PBS. Cyclophosphamide was given at 150 mg/kg i.p×1 dose; and oxaliplatin at 5 mg/kg i.p×1 dose. Nutlin-3a was administered daily at 10 mg/kg/day i.p. For checkpoint blockade, mice received anti-CTLA-4 plus a cocktail of antibodies against the PD-1 pathway. Vaccines and T cell adoptive transfer studies were performed as described (Sharma et al., (2015) Sci. Advances. 1: e1500845).
VO-OHpic/CTX, nutlin-3a, oxaliplatin and immunotherapy regimens: The vanadate compound VO-OHpic (Mak et al., (2010) J. Chem. Biol. 3: 157-163) inhibits PTEN activity, and this drug was used to destabilize PTEN+Tregs during chemotherapy. Like all of the available PTEN-inhibitors, VO-OHpic can also affect other phosphatases (Spinelli et al., (2015) Adv. Biol. Regul. 57: 102-111).
VO-OHpic was given at 10 mg/kg/day i.p., in 10% DMSO/PBS. Cyclophosphamide was given at 150 mg/kg i.p×1 dose. Oxaliplatin was given at 5 mg/kg i.p×1 dose. […] For checkpoint blockade, mice received anti-CTLA-4 (clone 9D9, BioXcell) plus a cocktail of antibodies against the PD-1 pathway: anti-PD-L2, clone TY25 (Yamazaki et al., (2002) J. Immunol. 169: 5538-5545); anti-PD-1, clone J43 (Agata et al., (1996) Int. Immunol. 8: 765-772); and anti-PD-L1, clone MIH7 (Tsushima et al., (2003) Eur. J. Immunol. 33: 2773-2782). A cocktail was used in order to block the PD-1 pathway as completely as possible and thus minimize any peculiarities of a single blocking antibody.

Setting [1] is: nutlin-3a added to VO-OHpic+CTX.

Consider `COc1ccc(C2=NC(c3ccc(Cl)cc3)C(c3ccc(Cl)cc3)N2C(=O)N2CCNC(=O)C2)c(OC(C)C)c1` (single isomer, unassigned; (-)) [nutlin-3a, (−)-4-(4,5-Bis(4-chlorophenyl)-2-(2-isopropoxy-4-methoxyphenyl)-4,5-dihydro-1H-imidazole-1-carbonyl)piperazin-2-one], for which the anti-tumor effect result is “maintained a prolonged anti-tumor response”. Besides, the anti-tumor effect result (listed as Nutlin-3a) is “markedly prolonged and maintained the anti-tumor effect”. Besides, under setting [1], the “Ly6c+CD103+ dendritic cells in tumors” value is given as “large population” and the “phospho-p53-Ser15 in dendritic cells” value is reported as “sustained elevation”.
